Source: patent publication US7962290B1, “Identification of pharmacophores from co-crystals of spleen tyrosine kinase (SYK) and SYK ligands” (Rigel Pharmaceuticals, Inc., priority 2006, dated 2011)

Assay: Precipitation of ligand in crystal soaking solution
Type: physicochemical
Protocol: The pooled fractions were dialyzed against 300 mM NaCl, 10 mM Hepes pH 7.5, 5 mM DTT overnight at 4° C. then concentrated to 10.9 mg/mL in a Vivaspin centrifugal concentrator (MWCO=10 kDa). Crystals were obtained at 20° C. in sitting drop plates using 1 μl of protein and 1 μl of crystallant (20% PEG 3000, 100 mM Citrate pH 5.5) equilibrated against 200 μl of crystallant in the reservoir. Plate-shaped crystals were observed after approximately 24 hours. A single crystal was transferred from the crystallization drop to a plate containing crystallant and 11.5 mM Cpd. No. 1. The crystal was soaked for 22.5 hours in this solution. […] The crystal was transferred to a cryoprotectant containing 20% PEG 3000, 100 mM Citrate pH 5:5, 15% glycerol then plunge frozen into liquid nitrogen for X-ray diffraction analysis.
The pooled fractions were dialyzed against 300 mM NaCl, 10 mM Hepes pH 7.5, 5 mM DTT, 10% glycerol overnight at 4° C. then concentrated to 10.0 mg/mL in a Vivaspin centrifugal concentrator (MWCO=10 kDa). Crystals were obtained at 20° C. in sitting drop plates using 1 μl of protein and 1 μl of crystallant (20% PEG 3000, 100 mM Citrate pH 5.5) equilibrated against 200 μl of crystallant in the reservoir. Plate-shaped crystals were observed after approximately 24 hours. […]

SMILES | precipitation at the end of the soak (crystallant (20% PEG 3000, 100 mM Citrate pH 5.5) with 11.5 mM compound, 22.5 hours) | concentration of the ligand in solution (soak solution 30% PEG 3000, 50 mM Citrate pH 5.5, 5% DMSO, 2.4 mM added, 23.5 hours, some precipitation observed)
Oc1cccc(Nc2ncc(F)c(Nc3cccc(O)c3)n2)c1 [Cpd. No. 1] | Some precipitation | 
COc1cc(Nc2ncc(F)c(Nc3ccc4c(n3)NC(=O)C(C)(C)O4)n2)cc(OC)c1OC [Cpd. No. 3] |  | less than 2.4 mM
